Test [1] has as its system Kuramochi cells. Nature of the test: BrdU cell proliferation assay (colorimetric ELISA), Kuramochi cells. The class given is cell-based. The following applies: class symbols A-D. In short, it runs like this: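 Kuramochi cells (2,000/well, with Kuramochi RB^KO cells as a specificity control) were treated with a 4-point, 3-fold dilution series made from 10 mM compound stocks and left for 4 days at 37 °C. Proliferation was measured by 1 h BrdU labelling, then anti-BrdU peroxidase ELISA read at 450 nm. Signals were background-subtracted and normalized to DMSO wells.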
For orientation: ELISA stands for enzyme-linked immunosorbent assay.

The target in test [2] is CDK2/Cyclin E1(14-475) (Homo sapiens, UniProt P24941). The test is described as follows: Caliper LabChip EZ Reader mobility shift assay, inhibition of CDK2/Cyclin E1 activity. It counts as biochemical. As to conditions: class symbols A-D. In short, it runs like this:
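CDK2/Cyclin E1(14-475) pre-incubated 30 min with compound and ATP, then reaction started with 5-FAM-QSPKKG-CONH2; final 2.5 nM enzyme, 100 μM ATP, 1.5 μM peptide, HEPES pH 7.5. Stopped with EDTA after 100 min; substrate/product conversion by capillary electrophoresis mobility shift, IC50 from four-parameter fit.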

Turning to `CNC(=O)[C@H](NC(=O)C1CN(C(=O)Cc2c[nH]c3cc(Cl)ccc23)CC2CN(C(=O)c3ccc(OC(C)C)c(OC)c3)CC21)[C@H](C)OCc1ccccc1` (stereo partly drawn) [I-105], the IC50 in test [1] and in test [2] was greater than 10 µM each time.

Consider `CNC(=O)[C@@H](NC(=O)C1CN(C(=O)Cc2c[nH]c3cc(Cl)ccc23)CC2CN(C(=O)c3ccc(OC(C)C)c(OC)c3)CC21)[C@H](C)OCC1CCCCC1` (stereo partly drawn) [I-107], for which the values for the IC50 in test [1] and in test [2] were 0.5 to 5 µM and no more than 0.5 µM, respectively.

For the compound `CNC(=O)[C@H](NC(=O)C1CN(C(=O)Cc2c[nH]c3cc(Cl)ccc23)CC2CN(C(=O)c3ccc(OC(C)C)c(OC)c3)CC21)[C@@H](C)OCC1CCCCC1` (stereo partly drawn) [I-108], the IC50 in test [1] and in test [2] was greater than 10 µM in each case.

In the case of `COc1cc(C(=O)N2CC3CN(C(=O)Cc4c[nH]c5cc(Cl)ccc45)CC(C(=O)N[C@@H](CCCc4ccccc4)C(N)=O)C3C2)ccc1OC(C)C` (stereo partly drawn) [I-109], the IC50 (usually the concentration at which inhibition is half-maximal) is greater than 10 µM in test [1] and 0.5 to 5 µM in test [2].

Consider `CNC(=O)[C@@H](CCCC1CCCCC1)NC(=O)C1CN(C(=O)Cc2c[nH]c3cc(Cl)ccc23)CC2CN(C(=O)c3ccc(OC(C)C)c(OC)c3)CC21` (stereo partly drawn) [I-112], for which the figures for the IC50 in test [1] and in test [2] were greater than 10 µM and 5 to 10 µM, respectively.

As to `CNC(=O)[C@H](CCCC1CCCCC1)NC(=O)C1CN(C(=O)Cc2c[nH]c3cc(Cl)ccc23)CC2CN(C(=O)c3ccc(OC(C)C)c(OC)c3)CC21` (stereo partly drawn) [I-113], the IC50 in test [1] is greater than 10 µM; in test [2], 0.5 to 5 µM.

`CNC(=O)[C@@H](CCCC(C)C)NC(=O)C1CN(C(=O)Cc2c[nH]c3cc(Cl)ccc23)CC2CN(C(=O)c3ccc(OC(C)C)c(OC)c3)CC21` (stereo partly drawn) [I-114]: the IC50 in test [1] and in test [2] was greater than 10 µM each time.

`CNC(=O)[C@H](CCCc1ccc(O)cc1)NC(=O)C1CN(C(=O)Cc2c[nH]c3cc(Cl)ccc23)CC2CN(C(=O)c3ccc(OC(C)C)c(OC)c3)CC21` (stereo partly drawn) [I-115]: the IC50 in test [1] was greater than 10 µM; in test [2], 5 to 10 µM.

For `CNC(=O)[C@H](CCCC1CCC(O)CC1)NC(=O)C1CN(C(=O)Cc2c[nH]c3cc(Cl)ccc23)CC2CN(C(=O)c3ccc(OC(C)C)c(OC)c3)CC21` (stereo partly drawn) [I-116], the IC50 in test [1] and in test [2] was greater than 10 µM throughout.

For `CNC(=O)[C@H](CCCc1cccnc1)NC(=O)C1CN(C(=O)Cc2c[nH]c3cc(Cl)ccc23)CC2CN(C(=O)c3ccc(OC(C)C)c(OC)c3)CC21` (stereo partly drawn) [I-126], the IC50 is greater than 10 µM in test [1] and 0.5 to 5 µM in test [2].

Consider `CNC(=O)[C@H](CCCc1ccccc1O)NC(=O)C1CN(C(=O)Cc2c[nH]c3cc(Cl)ccc23)CC2CN(C(=O)c3ccc(OC(C)C)c(OC)c3)CC21` (stereo partly drawn) [I-127], for which the IC50 in test [1] was greater than 10 µM; in test [2], 0.5 to 5 µM.

With `CNC(=O)[C@H](CCCc1cccc(O)c1)NC(=O)C1CN(C(=O)Cc2c[nH]c3cc(Cl)ccc23)CC2CN(C(=O)c3ccc(OC(C)C)c(OC)c3)CC21` (stereo partly drawn) [I-128], the results for the IC50 in test [1] and in test [2] were 0.5 to 5 µM and 5 to 10 µM, respectively.

On to `CNC(=O)[C@H](NC(=O)C1CN(C(=O)Cc2c[nH]c3cc(Cl)ccc23)CC2CN(C(=O)c3ccc(OC(C)C)c(OC)c3)CC21)[C@H](C)OCC1CCCCC1` (stereo partly drawn) [I-129], for which the IC50 in test [1] and in test [2] was greater than 10 µM each time.

For `CNC(=O)[C@H](CCCC1CCOCC1)NC(=O)C1CN(C(=O)Cc2c[nH]c3cc(Cl)ccc23)CC2CN(C(=O)c3ccc(OC(C)C)c(OC)c3)CC21` (stereo partly drawn) [I-130], the figures for the IC50 in test [1] and in test [2] were greater than 10 µM and 0.5 to 5 µM, respectively.

Turning to `CNC(=O)[C@@H](CCCC1CCOCC1)NC(=O)C1CN(C(=O)Cc2c[nH]c3cc(Cl)ccc23)CC2CN(C(=O)c3ccc(OC(C)C)c(OC)c3)CC21` (stereo partly drawn) [I-131], the values for the IC50 in test [1] and in test [2] were 0.5 to 5 µM and 5 to 10 µM, respectively.

For `CNC(=O)[C@@H](CCCC1CCCC1)NC(=O)C1CN(C(=O)Cc2c[nH]c3cc(Cl)ccc23)CC2CN(C(=O)c3ccc(OC(C)C)c(OC)c3)CC21` (stereo partly drawn) [I-132], the results for the IC50 in test [1] and in test [2] were greater than 10 µM and 0.5 to 5 µM, respectively.

In the case of `CNC(=O)[C@H](CCCc1ccc(C(F)(F)F)cc1)NC(=O)C1CN(C(=O)Cc2c[nH]c3cc(Cl)ccc23)CC2CN(C(=O)c3ccc(OC(C)C)c(OC)c3)CC21` (stereo partly drawn) [I-133], the IC50 was greater than 10 µM in test [1] and 0.5 to 5 µM in test [2].

In the case of `CNC(=O)[C@@H](CCCc1ccc(C(F)(F)F)cc1)NC(=O)C1CN(C(=O)Cc2c[nH]c3cc(Cl)ccc23)CC2CN(C(=O)c3ccc(OC(C)C)c(OC)c3)CC21` (stereo partly drawn) [I-134], the IC50 in test [1] and in test [2] was greater than 10 µM in each case.

Take `CNC(=O)C(NC(=O)C1CN(C(=O)Cc2c[nH]c3cc(Cl)ccc23)CC2CN(C(=O)c3ccc(OC(C)C)c(OC)c3)CC21)[C@@H](C)OCC1CCCCC1` (stereo partly drawn) [I-135]: the IC50 in test [1] was 0.5 to 5 µM; in test [2], no more than 0.5 µM.

As to `CNC(=O)[C@H](C/C=C/c1ccccc1)NC(=O)C1CN(C(=O)Cc2c[nH]c3cc(Cl)ccc23)CC2CN(C(=O)c3ccc(OC(C)C)c(OC)c3)CC21` (stereo partly drawn) [I-136], the IC50 in test [1] is greater than 10 µM; in test [2] it was 0.5 to 5 µM.

For `CNC(=O)[C@H](CC#Cc1ccccc1)NC(=O)C1CN(C(=O)Cc2c[nH]c3cc(Cl)ccc23)CC2CN(C(=O)c3ccc(OC(C)C)c(OC)c3)CC21` (stereo partly drawn) [I-137], the IC50 in test [1] and in test [2] was greater than 10 µM throughout.

Take `CNC(=O)[C@H](CCCc1ccncc1)NC(=O)C1CN(C(=O)Cc2c[nH]c3cc(Cl)ccc23)CC2CN(C(=O)c3ccc(OC(C)C)c(OC)c3)CC21` (stereo partly drawn) [I-138]: the IC50 in test [1] and in test [2] was greater than 10 µM throughout.

For `CNC(=O)[C@H](CCCc1cccc2[nH]nnc12)NC(=O)C1CN(C(=O)Cc2c[nH]c3cc(Cl)ccc23)CC2CN(C(=O)c3ccc(OC(C)C)c(OC)c3)CC21` (stereo partly drawn) [I-139], the IC50 was greater than 10 µM in test [1] and 0.5 to 5 µM in test [2].

On to `CNC(=O)[C@H](CCCC1CCCCCC1)NC(=O)C1CN(C(=O)Cc2c[nH]c3cc(Cl)ccc23)CC2CN(C(=O)c3ccc(OC(C)C)c(OC)c3)CC21` (stereo partly drawn) [I-140], for which the IC50 in test [1] was greater than 10 µM; in test [2] it was 0.5 to 5 µM.

For `CNC(=O)[C@@H](CCCC1CCCCCC1)NC(=O)C1CN(C(=O)Cc2c[nH]c3cc(Cl)ccc23)CC2CN(C(=O)c3ccc(OC(C)C)c(OC)c3)CC21` (stereo partly drawn) [I-141], the IC50 in test [1] was 5 to 10 µM; in test [2] it was greater than 10 µM.

Turning to `CNC(=O)[C@@H](CCCC1CCC(O)CC1)NC(=O)C1CN(C(=O)Cc2c[nH]c3cc(Cl)ccc23)CC2CN(C(=O)c3ccc(OC(C)C)c(OC)c3)CC21` (stereo partly drawn) [I-142], the IC50 in test [1] and in test [2] was greater than 10 µM each time.

`CNC(=O)[C@H](CCCc1ccc2[nH]nnc2c1)NC(=O)C1CN(C(=O)Cc2c[nH]c3cc(Cl)ccc23)CC2CN(C(=O)c3ccc(OC(C)C)c(OC)c3)CC21` (stereo partly drawn) [I-143]: the IC50 in test [1] and in test [2] was greater than 10 µM in each case.

For `CNC(=O)[C@H](CCCc1ccc(F)cc1)NC(=O)C1CN(C(=O)Cc2c[nH]c3cc(Cl)ccc23)CC2CN(C(=O)c3ccc(OC(C)C)c(OC)c3)CC21` (stereo partly drawn) [I-144], the IC50 in test [1] is greater than 10 µM; in test [2], 0.5 to 5 µM.

With `COc1cc(C(=O)N2CC3CN(C(=O)Cc4c[nH]c5cc(Cl)ccc45)CC(C(=O)NC(CCCc4ccccc4)c4ncco4)C3C2)ccc1OC(C)C` (stereo not drawn) [I-149], the IC50 is greater than 10 µM in test [1] and 0.5 to 5 µM in test [2].

As for `COc1cc(C(=O)N2CC3CN(C(=O)Cc4c[nH]c5cc(Cl)ccc45)CC(C(=O)NC(CCCc4ccccc4)c4ccccn4)C3C2)ccc1OC(C)C` (stereo not drawn) [I-150], the IC50 was 5 to 10 µM in test [1] and 0.5 to 5 µM in test [2].

The values are drawn from US12053459B2, “CDK2 inhibitors and methods of using the same” (Cedilla Therapeutics, Inc., priority 2021, dated 2024).
